Test results published in PubChem BioAssay (NCI).
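Following 48 hours of exposure in 96-well plates, responses at five concentrations were used to interpolate endpoints linearly. GI50 is the concentration that inhibits growth by half. TGI marks complete inhibition of growth.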

Experiments:
Experiment in all cases: inhibition of tumour cell growth, NCI panel, 48 h
NCI/ADR-RES ovarian = system: NCI/ADR-RES ovarian
M14 melanoma = system: M14 melanoma
HT29 colon = system: HT29 colon
SK-OV-3 ovarian = system: SK-OV-3 ovarian
A498 renal = system: A498 renal
ACHN renal = system: ACHN renal
HOP-62 NSCLC = system: HOP-62 NSCLC
NCI-H23 lung = system: NCI-H23 lung
SNB-75 CNS = system: SNB-75 CNS
K-562 leukemia = system: K-562 leukemia

S=C1N(c2ccc(Cl)cc2)C2=C(N=Nc3ccccc3)C(=Nc3ccccc3S2)N1c1ccccn1
TGI (NCI/ADR-RES ovarian): 33.4 µM | TGI (M14 melanoma): 26.6 µM | TGI (HT29 colon): 35.6 µM | TGI (SK-OV-3 ovarian): 31.6 µM | TGI (A498 renal): 17.2 µM | TGI (ACHN renal): 27.5 µM | TGI (HOP-62 NSCLC): 33.7 µM | TGI (NCI-H23 lung): 37.4 µM | TGI (SNB-75 CNS): 49.2 µM

N#C/C=C1\C=CC(O)C(O)C1OC1OC(CO)C(O)C(O)C1O (stereo not drawn)
TGI (K-562 leukemia): > 100 µM | TGI (NCI/ADR-RES ovarian): > 100 µM | TGI (M14 melanoma): > 100 µM | TGI (HT29 colon): > 100 µM | TGI (SK-OV-3 ovarian): > 100 µM | TGI (A498 renal): > 100 µM | TGI (ACHN renal): > 100 µM | TGI (HOP-62 NSCLC): > 100 µM | TGI (NCI-H23 lung): > 100 µM | TGI (SNB-75 CNS): > 100 µM

O=S(=O)(O)c1c(N=Nc2c(O)ccc3ccccc23)ccc2ccccc12
TGI (K-562 leukemia): > 100 µM | TGI (NCI/ADR-RES ovarian): > 100 µM | TGI (M14 melanoma): > 100 µM | TGI (HT29 colon): > 100 µM | TGI (SK-OV-3 ovarian): > 100 µM | TGI (A498 renal): > 100 µM | TGI (HOP-62 NSCLC): > 100 µM | TGI (NCI-H23 lung): > 100 µM | TGI (SNB-75 CNS): > 100 µM

O=S(O)c1cc(Cl)cc(Cl)c1O
TGI (K-562 leukemia): > 100 µM | TGI (M14 melanoma): > 100 µM | TGI (HT29 colon): > 100 µM | TGI (SK-OV-3 ovarian): > 100 µM | TGI (A498 renal): > 100 µM | TGI (ACHN renal): > 100 µM | TGI (HOP-62 NSCLC): > 100 µM | TGI (NCI-H23 lung): > 100 µM | TGI (SNB-75 CNS): > 100 µM

CN(C)Cc1ccc(C(=O)Nc2ccc3ncnc(Nc4ccc(Oc5cccc(F)c5)c(Cl)c4)c3c2)cc1
GI50 (K-562 leukemia): 1.17 µM | TGI (K-562 leukemia): 2.88 µM | GI50 (NCI/ADR-RES ovarian): 1.67 µM | TGI (NCI/ADR-RES ovarian): 3.45 µM | GI50 (A498 renal): 1.35 µM | TGI (A498 renal): 2.71 µM | GI50 (ACHN renal): 1.15 µM | TGI (ACHN renal): 2.36 µM | GI50 (NCI-H23 lung): 1.58 µM | TGI (NCI-H23 lung): 3.09 µM | GI50 (SNB-75 CNS): 1.48 µM | TGI (SNB-75 CNS): 2.84 µM

S=C(Nc1ccc(Cl)cc1)Nc1ccc(Cl)cc1 (tested in a mixture with another compound)
GI50 (K-562 leukemia): 2.28 µM | TGI (K-562 leukemia): > 100 µM | GI50 (NCI/ADR-RES ovarian): 2.54 µM | TGI (NCI/ADR-RES ovarian): 13.9 µM | GI50 (M14 melanoma): 2.03 µM | TGI (M14 melanoma): 5.39 µM | GI50 (HT29 colon): 1.96 µM | TGI (HT29 colon): 4.88 µM | GI50 (A498 renal): 1.62 µM | TGI (A498 renal): 6.56 µM | GI50 (ACHN renal): 2.37 µM | TGI (ACHN renal): 9.12 µM | GI50 (HOP-62 NSCLC): 2.75 µM | TGI (HOP-62 NSCLC): 7.2 µM | GI50 (NCI-H23 lung): 1.87 µM | TGI (NCI-H23 lung): 6.05 µM | GI50 (SNB-75 CNS): 1.65 µM | TGI (SNB-75 CNS): 4.87 µM

CC(=O)OCC1OC(O[C@@H]2c3c(O)c4c(c(O)c3C3=C(NN(c5ccc([N+](=O)[O-])cc5[N+](=O)[O-])[Se]3=O)[C@@]2(C)O)C(=O)c2ccccc2C4=O)C(OC(C)=O)C(OC(C)=O)C1OC(C)=O (stereo partly drawn)
TGI (K-562 leukemia): 0.431 µM | TGI (NCI/ADR-RES ovarian): 3.86 µM | TGI (M14 melanoma): 1.6 µM | TGI (HT29 colon): 0.57 µM | TGI (SK-OV-3 ovarian): 1.52 µM | TGI (A498 renal): 1.11 µM | TGI (ACHN renal): 0.607 µM | TGI (HOP-62 NSCLC): 0.714 µM | TGI (NCI-H23 lung): 0.698 µM | TGI (SNB-75 CNS): 6.24 µM

Fc1ccc(-c2ccc(-c3nnc(-c4cc(F)c(Cl)cc4Cl)o3)o2)cc1Cl
GI50 (K-562 leukemia): 48.5 µM | TGI (K-562 leukemia): > 100 µM | GI50 (NCI/ADR-RES ovarian): 35.8 µM | TGI (NCI/ADR-RES ovarian): > 100 µM | GI50 (HT29 colon): 22.7 µM | TGI (HT29 colon): 50.9 µM | GI50 (SK-OV-3 ovarian): 41.2 µM | TGI (SK-OV-3 ovarian): > 100 µM | GI50 (ACHN renal): 35.3 µM | TGI (ACHN renal): > 100 µM | GI50 (NCI-H23 lung): 47.9 µM | TGI (NCI-H23 lung): > 100 µM | GI50 (SNB-75 CNS): 30.6 µM | TGI (SNB-75 CNS): > 100 µM

O=C(/C=C/c1ccc(O)cc1)NCCc1ccc(O)cc1
TGI (K-562 leukemia): > 12.5 µM | TGI (NCI/ADR-RES ovarian): > 12.5 µM | TGI (M14 melanoma): > 12.5 µM | TGI (HT29 colon): > 12.5 µM | TGI (A498 renal): > 12.5 µM | TGI (ACHN renal): > 12.5 µM | TGI (HOP-62 NSCLC): > 12.5 µM | TGI (NCI-H23 lung): > 12.5 µM

CC(O)C(O)C(N)CC=O (stereo not drawn)
TGI (K-562 leukemia): > 500 µM | TGI (NCI/ADR-RES ovarian): > 500 µM | TGI (HT29 colon): > 500 µM | TGI (SK-OV-3 ovarian): > 500 µM | TGI (A498 renal): > 50 µM | TGI (HOP-62 NSCLC): > 500 µM | TGI (NCI-H23 lung): > 500 µM | TGI (SNB-75 CNS): > 500 µM

COc1ccc(SC(C)(SC)c2ccccn2)c(OC)n1 (stereo not drawn)
TGI (K-562 leukemia): > 100 µM | TGI (NCI/ADR-RES ovarian): > 100 µM | TGI (M14 melanoma): > 100 µM | TGI (HT29 colon): > 100 µM | TGI (A498 renal): > 100 µM | TGI (ACHN renal): > 100 µM | TGI (HOP-62 NSCLC): > 100 µM | TGI (NCI-H23 lung): > 100 µM

COc1cccc(-c2nc3c(C(=O)NCCN(C)C)cccc3[nH]2)c1
TGI (K-562 leukemia): > 70.9 µM | TGI (NCI/ADR-RES ovarian): 44.1 µM | TGI (HT29 colon): 42 µM | TGI (SK-OV-3 ovarian): 69.5 µM | TGI (A498 renal): 32.1 µM | TGI (HOP-62 NSCLC): 33.2 µM | TGI (NCI-H23 lung): 50.8 µM | TGI (SNB-75 CNS): 68.1 µM

Nc1nc(SCc2ccccc2)c2ncn(Cc3ccccc3)c2n1
TGI (K-562 leukemia): > 100 µM | TGI (NCI/ADR-RES ovarian): > 100 µM | TGI (M14 melanoma): > 100 µM | TGI (HT29 colon): > 100 µM | TGI (SK-OV-3 ovarian): > 100 µM | TGI (A498 renal): > 65.9 µM | TGI (ACHN renal): > 100 µM | TGI (HOP-62 NSCLC): > 100 µM | TGI (NCI-H23 lung): > 100 µM | TGI (SNB-75 CNS): > 100 µM

C[N+]1(C)CCC(C#N)(c2ccccc2)CC1
TGI (K-562 leukemia): > 100 µM | TGI (NCI/ADR-RES ovarian): > 100 µM | TGI (M14 melanoma): > 100 µM | TGI (HT29 colon): > 100 µM | TGI (SK-OV-3 ovarian): > 100 µM | TGI (A498 renal): > 100 µM | TGI (ACHN renal): > 100 µM | TGI (HOP-62 NSCLC): > 100 µM | TGI (NCI-H23 lung): > 100 µM | TGI (SNB-75 CNS): > 100 µM

O=S(=O)(c1ccc(I)cc1)N(c1ccccc1)S(=O)(=O)C(F)(F)C(F)(F)C(F)(F)C(F)(F)F
TGI (K-562 leukemia): > 100 µM | TGI (NCI/ADR-RES ovarian): > 100 µM | TGI (M14 melanoma): > 100 µM | TGI (HT29 colon): 51.2 µM | TGI (SK-OV-3 ovarian): 74 µM | TGI (ACHN renal): > 100 µM | TGI (HOP-62 NSCLC): 66.6 µM | TGI (NCI-H23 lung): > 100 µM

[C-]#[O+].[C-]#[O+].[Ir].[O-]c1cccc2cccnc12
GI50 (HT29 colon): > 100 µM | TGI (HT29 colon): > 100 µM | GI50 (SK-OV-3 ovarian): > 100 µM | TGI (SK-OV-3 ovarian): > 100 µM | GI50 (NCI-H23 lung): > 100 µM | TGI (NCI-H23 lung): > 100 µM | GI50 (SNB-75 CNS): > 100 µM | TGI (SNB-75 CNS): > 100 µM

C=C1C(=O)OC2C1C(OC(=O)/C(C)=C/C)CC1(C)C(=O)CCC(=C)C21 (stereo not drawn)
TGI (NCI/ADR-RES ovarian): 33.8 µM | TGI (M14 melanoma): 23.3 µM | TGI (HT29 colon): 22 µM | TGI (SK-OV-3 ovarian): 51.7 µM | TGI (A498 renal): 34 µM | TGI (ACHN renal): 8.23 µM | TGI (HOP-62 NSCLC): 30.5 µM | TGI (NCI-H23 lung): 30.1 µM | TGI (SNB-75 CNS): 32 µM

CC1(C)COC(/C=C/C2=NC(C)(C)CO2)=N1
TGI (K-562 leukemia): 63.4 µM | TGI (NCI/ADR-RES ovarian): 84 µM | TGI (M14 melanoma): 31.4 µM | TGI (HT29 colon): 98.4 µM | TGI (SK-OV-3 ovarian): > 100 µM | TGI (A498 renal): 25.4 µM | TGI (ACHN renal): 57.3 µM | TGI (HOP-62 NSCLC): 55.2 µM | TGI (NCI-H23 lung): 58.1 µM | TGI (SNB-75 CNS): > 100 µM

O=C1c2ccccc2-c2ccc(N=[N+]([O-])c3ccc4c(c3)C(=O)c3ccccc3-4)cc21
TGI (K-562 leukemia): > 100 µM | TGI (NCI/ADR-RES ovarian): > 100 µM | TGI (M14 melanoma): > 100 µM | TGI (HT29 colon): > 100 µM | TGI (SK-OV-3 ovarian): > 100 µM | TGI (A498 renal): > 100 µM | TGI (ACHN renal): > 100 µM | TGI (HOP-62 NSCLC): > 100 µM | TGI (NCI-H23 lung): > 100 µM | TGI (SNB-75 CNS): > 100 µM

O=C(O)C1CC(c2ccccc2)=NN1c1ccccc1 (stereo not drawn)
TGI (K-562 leukemia): > 100 µM | TGI (NCI/ADR-RES ovarian): > 100 µM | TGI (M14 melanoma): > 100 µM | TGI (HT29 colon): > 100 µM | TGI (SK-OV-3 ovarian): > 100 µM | TGI (A498 renal): > 100 µM | TGI (ACHN renal): > 100 µM | TGI (HOP-62 NSCLC): > 100 µM | TGI (NCI-H23 lung): > 100 µM | TGI (SNB-75 CNS): > 100 µM
